Values joined by “and” are separate entries in the source; they are usually repeats but may differ in a detail not shown here. Equal values may be shown once.
Legend:
[1] = tested on: Lp(a); assay: Lp(a) levels in LPA × ApoB100 transgenic mice; assay type: in vivo, mouse; parameters: Lp(a) / Diff_vs_Vehicle: unit not given here; details: for % max Lp(a) decrease (dose, mg/kg): Lp(a) transgenic mice section; for % Lp(a) max decrease / ED50: BID, 5 days dosing; for Percent_change_from_Vehicle / Diff_vs_Vehicle: Lp(a); for Diff_vs_Vehicle: group statistics; for ED50: Mus musculus, 120 h
Description: The LPA gene (GenBank accession code NM_005577) encoding the human apo(a) protein with a signal peptide, one KIV type 1, six KIV type 2 repeats, one each of KIV types 3–10, one KV and one protease domain was subcloned into a transgenic vector containing a mouse albumin promoter cassette and a human growth hormone polyadenylation signal. The transgenic mouse line was generated by pronucleus injection of the LPA transgenic vector. Eight individual transgenic founder mice were assessed for germline transmission of LPA by genotyping and assessment of the levels of apo(a) in the plasma. Positive founder mice were crossed with ApoB100 transgenic mice (Taconic model 1004), and the resulting mouse line nomenclature (B6.SJL-Tg(APOB)1102Sgy Tg(Alb-LPA)32Arte) was selected on the basis of the confirmation of germline transmission, the identification of LPA and huApoB100 transgenes and the levels of Lp(a) in the plasma. Mice hemizygous for both transgenes were used for pharmacology studies. The studies were conducted in female Lp(a) double transgenic mice (age around 7–17 months). Mice were housed in cages with a standard light cycle (12-h light, 12-h dark), at room temperature (22 ± 4 °C), with a relative humidity of 30–70%. Mice were identified by numbers on the cage cards. After arrival, mice were fed on a normal diet (Harlan Teklad diet 2014). Mice were randomized to treatment groups (n = 5 per group, unless otherwise noted) by body weight and baseline plasma Lp(a) concentration using a block randomized allocation tool (BRAT) for the study. In an example Lp(a) transgenic mouse study in which 66 mice were prescreened for baseline Lp(a) levels, the average Lp(a) level was 45 ± 1.8 µg ml^−1 (range 20–78 µg ml^−1). Mice were dosed with various compounds in vehicle (10 ml kg^−1, 1% hydroxyethyl cellulose (HEC), 0.25% Tween-80, Antifoam) or with vehicle alone as a control orally BID for five days. Blood samples were collected by tail bleeds at designated times, and Lp(a) levels were determined by ELISA by an investigator who was blinded to group allocation. In brief, lipoprotein particles were captured by a goat anti-Lp(a)-antibody-coated plate (Abcam ab31675, diluted 1:12,500 in HEPES-buffered saline), the plates were washed and samples were detected using an HRP-conjugated goat anti-apoB antibody (Abcam ab27622, diluted 1:3,000). Colorimetric peroxidase substrate 3,3’,5,5’-TMB was added, and the reaction was stopped using 1 N sulfuric acid. Absorbance at 450 nm was read on a Molecular Devices SpectraMax plate reader. Blood samples were collected at four hours after dosing on day 5 of dosing to confirm exposure. Full pharmacokinetic (PK) profiles were not evaluated. Concentrations of compounds were evaluated from dried blood spots through a non-Good Laboratory Practice (GLP) liquid chromatography with tandem mass spectrometry (LC–MS/MS) assay. Data were analysed in GraphPad Prism v.9.5.1

[2] = molecular target: T1, apo(a) KIV8 (Homo sapiens, UniProt P08519); assay: ITC binding to apo(a) KIV8
T1 construct: made in house
T1 sequence (P08519 1387-1465 limits assumed): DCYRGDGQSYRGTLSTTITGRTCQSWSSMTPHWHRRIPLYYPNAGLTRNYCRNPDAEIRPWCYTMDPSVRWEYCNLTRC
Description: The nucleotide sequence encoding the human LPA gene (NP_005568.2) was inserted into a mammalian expression vector containing a cytomegalovirus promoter. Protein expression was performed by transient transfection of human embryonic kidney 293 (HEK293) cells cultured in serum-free medium. The culture medium was collected five days after transfection and human apo(a) protein was purified using L-lysine affinity chromatography. Nucleotide sequences encoding various KIV domains of human apo(a) and human and rat plasminogen were inserted into a pET21a Escherichia coli expression vector. Bacterial BL21(DE3) was used as the expression host, and the induction of protein expression was performed in 2× TY medium with 1 mM isopropyl β-D-1-thiogalactopyranoside at 37 °C for 5 h. Cells were collected and stored at –80 °C for subsequent protein purification and refolding. […] All protein concentrations were determined by A280.
Experiments were performed on a MicroCal Auto-iTC200 titration calorimeter (Malvern Panalytical), with a cell volume of 200 μl and a 40-μl microsyringe. […] The microsyringe was loaded with a solution of the respective compounds, with the concentration measured by quantitative nuclear magnetic resonance, and was inserted into the calorimetric cell prefilled with the respective recombinant proteins of known concentration in ITC buffer. […]

[3] = Lp(a) transgenic mice, oral BID, five days
[4] = transgenic mice, 3mpk oral BID five days, individual animal, 3 mg/kg
[5] = transgenic mice, 10mpk oral BID five days, individual animal, 10 mg/kg
[6] = transgenic mice, 30mpk oral BID five days, individual animal, 30 mg/kg
[7] = transgenic mice, 100mpk oral BID five days, individual animal, 100 mg/kg
[8] = transgenic mice, 1mpk oral BID five days, individual animal, 1 mg/kg
[9] = 1mpk, individual animals, Fig 3f data
[10] = 3mpk, individual animals, Fig 3f data
[11] = 10mpk, individual animals, Fig 3f data
[12] = 30mpk, individual animals, Fig 3f data

Row | SMILES | % Lp(a) max decrease ([1]; Lp(a) transgenic mice) | ED50 for Lp(a) reduction [1, 3] | Percent_change_from_Vehicle [1, 4] | Diff_vs_Vehicle ([1]; transgenic mice, 3mpk) | Percent_change_from_Vehicle [1, 5] | Diff_vs_Vehicle ([1]; transgenic mice, 10mpk) | Percent_change_from_Vehicle [1, 6] | Diff_vs_Vehicle ([1]; transgenic mice, 30mpk) | ED50 ([1]; Lp(a) transgenic mice) | Lp(a) [1, 4] | Lp(a) [1, 5] | Lp(a) [1, 6] | Diff_vs_Vehicle ([1]; transgenic mice, 1mpk) | Kd [2] | further results
1 | Cl.O=C(O)[C@@H](Cc1ccccc1)[C@H]1CCNC1 [LSN3353871] | 78% | 14 mg/kg | -29.9395% and -21.6818% and -23.4274% and -25.3773% and -20.1775% | -3.8966 | -56.5511% and -68.7767% and -51.9146% and -54.3536% | -9.353 | -73.0355% and -73.0232% and -55.5978% and -55.3749% and -63.9731% | -10.3714 | 14 mg/kg | 11.318 and 12.652 and 12.37 and 12.055 and 12.895 | 7.019 and 5.044 and 7.768 and 7.374 | 4.356 and 4.358 and 7.173 and 7.209 and 5.82 | – | – | % max Lp(a) decrease (dose, mg/kg) ([1]; dose 20 mg/kg): 40 (20) %; maximum decrease in Lp(a) levels [1, 3]: up to 78%; Percent_change_from_Vehicle [1, 7]: -69.9343% and -77.4368% and -71.3085% and -83.0203% and -88.6967%; Diff_vs_Vehicle ([1]; transgenic mice, 100mpk): -12.6134; Lp(a) [1, 7]: 4.857 and 3.645 and 4.635 and 2.743 and 1.826
2 | Cl.Cl.O=C(Nc1cccc(C[C@H](C(=O)O)[C@H]2CCNC2)c1)Nc1cccc(C[C@H](C(=O)O)[C@H]2CCNC2)c1 [LSN3441732] | 79% | 4 mg/kg | -66.5236% and -51.6627% and -46.9156% and -38.737% and -24.3395% | -17.8805 | -76.5617% and -56.1229% and -72.4537% and -56.7885% and -51.1958% | -24.5369 | -63.8115% and -85.6659% and -79.4795% and -86.8495% and -81.3358% | -31.1209 | 4 mg/kg | 13.1164 and 18.9391 and 20.799 and 24.0035 and 29.6445 | 9.183 and 17.1915 and 10.7929 and 16.9307 and 19.122 | 14.179 and 5.616 and 8.04 and 5.1525 and 7.3128 | -9.583 | < 0.01 µM | % max Lp(a) decrease (dose, mg/kg) ([1]; dose 30 mg/kg): 79 (30) %; mean maximal inhibition of Lp(a) ([1]; Lp(a) transgenic mice, 30 mg kg^−1 oral BID, five days): 79%; Percent_change_from_Vehicle [1, 8]: -26.3802% and -29.1802% and -35.4498% and -52.0742% and 20.793%; Lp(a) [1, 8]: 28.845 and 27.7479 and 25.2914 and 18.7778 and 47.3279
3 | O=C(O)[C@@H](Cc1cccc(CN(Cc2cccc(C[C@H](C(=O)O)[C@H]3CCNC3)c2)Cc2cccc(C[C@H](C(=O)O)[C@H]3CCNC3)c2)c1)[C@H]1CCNC1 [LY3473329] | 91.2% | – | – | -6.3714 | – | -8.8948 | – | -9.8776 | 3 mg/kg | – | – | – | -1.9212 | 0.022 µM | Lp(a) [1, 9]: 7.93 and 10.403 and 8.938 and 8.912 and 9.52; Percent_change_from_Vehicle (Lp(a)) [1, 9]: -28.3118% and -5.956% and -19.1994% and -19.4345% and -13.9381%; Lp(a) [1, 10]: 3.393 and 6.014 and 3.723 and 4.125 and 6.197; Percent_change_from_Vehicle (Lp(a)) [1, 10]: -69.3269% and -45.6327% and -66.3436% and -62.7095% and -43.9784%; Lp(a) [1, 11]: 2.124 and 2.374 and 3.019 and 1.686 and 1.632; Percent_change_from_Vehicle (Lp(a)) [1, 11]: -80.7988% and -78.5388% and -72.7079% and -84.7584% and -85.2465%; Lp(a) [1, 12]: 1.195 and 0.994 and 1.853 and 0.894 and 0.985; Percent_change_from_Vehicle (Lp(a)) [1, 12]: -89.1971% and -91.0141% and -83.2487% and -91.9181% and -91.0955%; % max Lp(a) decrease (dose, mg/kg) ([1]; dose 100 mg/kg): 91.2 (100) %

— article PMC11111404, “Discovery of potent small-molecule inhibitors of lipoprotein(a) formation” (Nature, 2024)
